# Experimental data reported in patent US10390553B2, “Food containing histidine and use thereof” (AJINOMOTO CO., INC., priority 2013, dated 2019).
# Columns and labels:
# [1] = test system: males feeling decrease in the quality of sleep and fatigue; test: Safety of histidine ingestion: general properties, hematology, blood biochemistry; assay type: in vivo, human; details: 2 weeks continuous and single, 1.65 g
# Excerpt: Twenty males of 45 years old to less than 65 years old, who received total evaluation of not less than 17 points in the “self-diagnosis fatigue questionnaire” (Fatigue Science Laboratory Inc.) performed in advance, felt decrease in the quality of sleep (generally PSQI≥6), and obtained fatigue factor T scores of not less than 60 points in POMS, were selected, and randomly divided into 2 groups (10 per group). A crossover test, including ingesting histidine and control food (equal volume of cellulose) each for 14 days, was performed in each group.
# As shown in the experiment protocol of FIG. 4A, the test subjects ingested capsules containing 1.65 g of L-histidine as a daily ingestion amount (5 capsules (hard capsule #2 WHITE OP B/C) containing 0.33 g of L-histidine alone), or control sample capsules (5 capsules containing equal volume of cellulose) for 14 days. After the completion of 14 day ingestion, a 14 day resting period was taken. After the resting period, they ingested the capsules not ingested before the resting period. […]
# [2] = test system: CD2F1 mice after burden of insufficient sleep; test: Locomotor activities in the dark phase after burden of insufficient sleep, continuous histidine administration; assay type: in vivo, mouse; details: 1.2 w/v % L-histidine solution drunk for 7 days, 1.2 g/kg body weight/day; SD+His vs SD+solvent
# Excerpt: Using CD2F1 mice (9-week-old) and as shown in the experiment protocol of FIG. 1A, the mice were chronically allowed to drink a 1.2 w/v % L-histidine solution for 7 days in the histidine ingestion group (SD+His) to achieve a dose of 1.2 g/kg body weight/day. Water was given to the control group (CON) and the solvent ingestion group (SD+solvent). Then, the sleep disorder group (SD) was burdened by insufficient sleep for one day by filling water in the breeding cage at the depth of 0.5 cm. The burden was released at 6 hr from the start of the light phase (ZT6), and the mice were placed back in the home cage and allowed to rest for 6 hr. The control group was reared without burden in the home cage. Thereafter, they were transferred into a cage set under a locomotor activity measurement infrared sensor (Digital acquisition system; NS-DAS-32, Neuroscience Inc, Tokyo, Japan) under fasting and water-deprivation. The locomotor activities were measured and the data was collected by a multidigital counter (Neuroscience Inc, Tokyo, Japan).
# [3] = test system: males feeling decrease in the sleep quality and fatigue; test: POMS after histidine ingestion for 14 days (crossover vs control food); assay type: in vivo, human; details: 1.65 g L-histidine daily for 14 days vs control food; paired t-test p<0.05
# Excerpt: (§1) Twenty males of 45 years old to less than 65 years old, who received total evaluation of not less than 17 points in the “self-diagnosis fatigue questionnaire” (Fatigue Science Laboratory Inc.) performed in advance, felt decrease in the quality of sleep (generally PSQI≥6), and obtained fatigue factor T scores of not less than 60 points in POMS, were selected, and randomly divided into 2 groups (10 per group). A crossover test, including ingesting histidine and control food (equal volume of cellulose) each for 14 days, was performed in each group. As shown in the experiment protocol of FIG. 4A, the test subjects ingested capsules containing 1.65 g of L-histidine as a daily ingestion amount (5 capsules (hard capsule #2 WHITE OP B/C) containing 0.33 g of L-histidine alone), or control sample capsules (5 capsules containing equal volume of cellulose) for 14 days. After the completion of 14 day ingestion, a 14 day resting period was taken. After the resting period, they ingested the capsules not ingested before the resting period. […]
# [4] = test system: mouse reared under 24 hr dark conditions; test: Biorhythm phase regulating action, locomotor behavioral pattern in free run cycle under 24 hr dark conditions; assay type: in vivo; details: for phase shift of the behavior start time (circadian rhythm): feed with 45 mg L-histidine per 1 g, 4 hours per day for 4 days
# Description: A phase regulating action of histidine on a mouse reared under 24 hr dark conditions was evaluated. When a mouse is reared under 24 hr dark conditions, the mouse starts to act in a cycle specific to the biological clock (also referred to as free run, meaning freed from synchrony), since the outside information (light-dark cycle of light) cannot be obtained. When the free run cycle is converted to 24 hr and indicated as circadian time on the horizontal axis, 12 hours of the former half thereof is called a subjective light period (time zone judged to be daytime by biological clock: CT0-12), and the latter half is called a subjective dark period (time zone judged to be night by biological clock: CT12-24). Under such conditions, locomotor activity of mice (behavioral pattern in free run cycle) was measured using an emission infrared detector type locomotor activities sensor (Digital acquisition system; NS-AS01, Neuroscience Inc, Tokyo, Japan). Furthermore, a feed added with 45 mg of L-histidine per 1 g of a general feed was prepared, and used to replace the general feed for only 4 hours in one day to allow for ingestion. The time zone for ingestion was CT2-6 (subjective light period) or CT14-18 (subjective dark period). Such replacement of the feed was performed for 4 days, and change of phase of the behavioral pattern was judged.
# [5] = test system: males feeling decrease in the quality of sleep and fatigue; test: VAS questionnaires relating to mental energy, single histidine ingestion; assay type: in vivo, human; details: single ingestion 1.65 g
# Excerpt: (§2) Twenty males of 45 years old to less than 65 years old, who received total evaluation of not less than 17 points in the “self-diagnosis fatigue questionnaire” (Fatigue Science Laboratory Inc.) performed in advance, felt decrease in the quality of sleep (generally PSQI≥6), and obtained fatigue factor T scores of not less than 60 points in POMS, were selected, and randomly divided into 2 groups (10 per group). The effect of single ingestion of histidine and control food (equal volume of cellulose) was compared in each group. As shown in the experiment protocol of FIG. 5A, the test subjects took the same meals for 3 days before the experiment, fasted for 10 to 14 hr, and ingested capsules containing 1.65 g of L-histidine as a single ingestion amount (5 capsules (hard capsule #2 WHITE OP B/C) containing 0.33 g of L-histidine alone), or control sample capsules (5 capsules containing equal volume of cellulose). Before and 1 hr after ingestion of capsules, the test subjects answered the VAS questionnaires (fatigue, depression, vague sense, drowsiness, clear thinking, motivation, attentiveness, concentration) relating to mental energy, and cognitive function measurement task CogHealth (under conditions with higher difficulty by simultaneously including mental arithmetic task as well) to measure recognition. Furthermore, they answered VAS questionnaires after completion of CogHealth.
# [6] = test system: CD2F1 mice after burden of insufficient sleep; test: Locomotor activities under novel environment after burden of insufficient sleep, single histidine administration; assay type: in vivo, mouse; details: single oral dose 1.2 g/kg body weight at ZT14; measured for 3 hr from ZT15; SD+His vs SD+solvent
# Excerpt: Using CD2F1 mice (9-10-week-old) and as shown in the experiment protocol of FIG. 2A, a burden of insufficient sleep is applied to sleep disorder group (SD) for one day. The burden was released at ZT6, and the mice were placed back in the home cage and allowed to rest for 6 hr. The control group (CON) was reared without burden in the home cage. A 1.2 w/v % L-histidine solution was orally administered to a histidine administration group (SD+His) at 2 hr after the start of the dark phase after burden of insufficient sleep (ZT14), to achieve an L-histidine dose of 1.2 g/kg body weight. A solvent (water) was orally administered to the solvent administration group (SD+solvent) and the control group (CON). The locomotor activities under novel environment were measured for 3 hr from 3 hr after the start of the dark phase (ZT15).
# [7] = test system: males feeling decrease in the sleep quality and fatigue; test: Cognitive function measurement task CogHealth, histidine ingestion for 14 days; assay type: in vivo, human; details: 1.65 g daily for 14 days vs control food
# Excerpt: as §1
# [8] = test system: males feeling decrease in the sleep quality and fatigue; test: VAS questionnaires relating to mental energy, histidine ingestion for 14 days; assay type: in vivo, human; details: 1.65 g daily for 14 days vs control food, p<0.05
# Excerpt: Twenty males of 45 years old to less than 65 years old, who received total evaluation of not less than 17 points in the “self-diagnosis fatigue questionnaire” (Fatigue Science Laboratory Inc.) performed in advance, felt decrease in the quality of sleep (generally PSQI≥6), and obtained fatigue factor T scores of not less than 60 points in POMS, were selected, and randomly divided into 2 groups (10 per group). A crossover test, including ingesting histidine and control food (equal volume of cellulose) each for 14 days, was performed in each group. As shown in the experiment protocol of FIG. 4A, the test subjects ingested capsules containing 1.65 g of L-histidine as a daily ingestion amount (5 capsules (hard capsule #2 WHITE OP B/C) containing 0.33 g of L-histidine alone), or control sample capsules (5 capsules containing equal volume of cellulose) for 14 days. After the completion of 14 day ingestion, a 14 day resting period was taken. After the resting period, they ingested the capsules not ingested before the resting period. On the initial day and the day after completion of the capsule ingestion period, the test subjects answered POMS and the VAS questionnaires (fatigue, depression, vague sense, drowsiness, clear thinking, motivation, attentiveness, concentration) relating to mental energy, and cognitive function measurement task CogHealth (under higher difficulty conditions by simultaneously including mental arithmetic task as well) to measure recognition. Furthermore, they answered VAS questionnaires after completion of CogHealth.
# [9] = test system: males feeling decrease in the quality of sleep and fatigue; test: Cognitive function measurement task CogHealth, single histidine ingestion; assay type: in vivo, human; details: single ingestion 1.65 g, 1 hr after ingestion, vs control food
# Excerpt: as §2
# [10] = test system: CD2F1 mice after burden of insufficient sleep; test: Y-maze test, short-working memory after burden of insufficient sleep, single histidine administration; assay type: in vivo, mouse; details: single oral dose 1.2 g/kg body weight at ZT14; Y-maze at ZT15; SD+His vs SD+solvent
# Excerpt: Using CD2F1 mice (9-week-old) and as shown in the experiment protocol of FIG. 3A, a burden of insufficient sleep is applied to sleep disorder group (SD) for two days. The burden was released at ZT6, and the mice were placed back in the home cage and allowed to rest for 6 hr. The control group (CON) was reared without burden in the home cage. A L-histidine solution was orally administered to a histidine administration group (SD+His) at 2 hr after the start of the dark phase after burden of insufficient sleep (ZT14), to achieve an L-histidine dose of 1.2 g/kg body weight. A solvent (water) was orally administered to the solvent administration group (SD+solvent) and the control group (CON). The Y-maze test was performed at 3 hr from the start of the dark phase (ZT15), and short-working memory was measured.
# [11] = test system: clock genes (Bmal1, Dbp, Per1, Per2, Reverb-alpha); test: Oscillation of expression of clock genes of the auricle in aged mice; assay type: in vivo, mouse; details: aged mice 22 to 24 months, 1.2 w/v % L-histidine solution for 9 days
# Description: Aged mice of 22 to 24 months of age being reared under generally light and dark environment were divided into two groups, and the effect of the ingestion of histidine drinking solution was studied. The histidine ingestion period was set to 9 days, during which period aqueous L-histidine solution (corresponding to L-histidine 1.2 w/v %) was given for ingestion by mounting a water inlet on a 50 mL centrifuge tube, whereby about 1.2 g/kg body weight of histidine was ingested per day. In the histidine ingestion group of aged mice, samples were taken from the auricle by changing the position over time on 8 to 9 days from the start of the ingestion of the aqueous histidine solution, and 5 kinds of clock genes (Bmal1, Dbp, Per1, Per2, Reverb-alpha) of the peripheral tissue were analyzed as an index of biorhythm. In the simultaneous stage, the clock genes of the auricle of the aged mice and young mice (4 months old) that ingested tap water were analyzed as comparison targets. […] To be specific, gene expression of the clock gene was quantified at each time point, and the amplitudes and phase of the oscillation of expression of the clock gene of each individual were determined by approximation on the cosine curve. […]
# [12] = 1 hr after ingestion, before cognitive functioning test, p<0.05
# [13] = before cognitive functioning test
smiles,measurement,setting,value
"N[C@@H](Cc1c[nH]cn1)C(=O)O [histidine, L-histidine]","variation in general properties, hematology, and blood biochemistry",[1],did not show problematic variation
same,locomotor activities in the dark phase,[2],significant suppression of a decrease of locomotor activities in the dark phase
same,fatigue factor scores of POMS,[3],significantly decreased
same,phase shift of the behavior start time (circadian rhythm),[4]; ingestion in CT2-6 (subjective light period),significantly advances
same,phase shift of the behavior start time (circadian rhythm),[4]; ingestion in CT14-18 (subjective dark period),tended to advance
same,"shortening of the cycle of activity rhythm, mean","[4]; ingestion of histidine in CT2-6, n=4",0.34 ± 0.08 h
same,VAS sense of concentration,"[5]; 1 hr after ingestion, before cognitive functioning test",tended to increase
same,VAS sense of attentiveness,[5]; [12],significantly increased
same,VAS sense of clear thinking,[5]; [12],significantly increased
same,VAS sense of concentration,[5]; after completion of CogHealth,tended to increase
same,VAS sense of depression,[5]; after completion of CogHealth,tended to decrease
same,VAS sense of vagueness,"[5]; after completion of CogHealth, p<0.05",significantly decreased
same,locomotor activities under novel environment,[6],tendency of suppression of a decrease in the locomotor activities
same,reaction time of cognitive function measurement task,[7],shortened
same,reaction time of delayed recall task,[7]; paired t-test p<0.05,significantly decreased
same,VAS sense of attentiveness,[8]; after completion of CogHealth,significantly increased
same,VAS sense of depression,[8]; after completion of CogHealth,significantly decreased
same,VAS sense of motivation,[8]; after completion of CogHealth,significantly increased
same,VAS sense of attentiveness,[8]; [13],significantly increased
same,VAS sense of clear thinking,[8]; [13],significantly increased
same,VAS sense of motivation,[8]; [13],significantly increased
same,indices relating to cognition,[9],did not show a significant change
same,work time in 5 kinds of brain function measurement indices,[9],shortened
same,alternation behavior (short-working memory),[10],significant suppression of a decrease of alternation behavior
same,phase of the oscillation of expression of the clock gene,"[11]; about 1.2 g/kg body weight per day, vs aged mice on tap water",suppressed phase advancement
same,average phase of measured 5 clock genes compared to young mice,[11]; compared to young mice (4 months old),reached the same level as in young mice
